Reference: patent US11339169B2, “P2X3 and/or P2X2/3 compounds and methods” (Asana BioSciences, LLC, priority 2016, dated 2022)

Tests used:
hP2X2/3 = biological target: T1, hP2X2/3 (Homo sapiens, UniProt P56373+Q9UBL9); assay: FLIPR intracellular calcium assay, hP2X2/3; format: cell-based; details: human P2X2/3-TRex293 cells, agonist at EC75
T1 construct: host or cells: TRex293 (hP2X2/3-TRex293), doxycycline-induced
T1 sequence (P56373 1-397): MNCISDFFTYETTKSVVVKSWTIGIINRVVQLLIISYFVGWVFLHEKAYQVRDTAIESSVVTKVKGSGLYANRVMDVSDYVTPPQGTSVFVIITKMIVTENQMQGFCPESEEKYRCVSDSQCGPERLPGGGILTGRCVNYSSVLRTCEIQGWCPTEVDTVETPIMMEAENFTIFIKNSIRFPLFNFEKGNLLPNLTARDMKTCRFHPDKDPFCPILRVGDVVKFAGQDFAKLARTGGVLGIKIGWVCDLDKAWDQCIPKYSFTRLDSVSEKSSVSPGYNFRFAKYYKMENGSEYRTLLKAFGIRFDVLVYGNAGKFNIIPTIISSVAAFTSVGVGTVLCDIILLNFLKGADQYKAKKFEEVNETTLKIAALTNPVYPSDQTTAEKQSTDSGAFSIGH
T1 sequence (Q9UBL9 1-471): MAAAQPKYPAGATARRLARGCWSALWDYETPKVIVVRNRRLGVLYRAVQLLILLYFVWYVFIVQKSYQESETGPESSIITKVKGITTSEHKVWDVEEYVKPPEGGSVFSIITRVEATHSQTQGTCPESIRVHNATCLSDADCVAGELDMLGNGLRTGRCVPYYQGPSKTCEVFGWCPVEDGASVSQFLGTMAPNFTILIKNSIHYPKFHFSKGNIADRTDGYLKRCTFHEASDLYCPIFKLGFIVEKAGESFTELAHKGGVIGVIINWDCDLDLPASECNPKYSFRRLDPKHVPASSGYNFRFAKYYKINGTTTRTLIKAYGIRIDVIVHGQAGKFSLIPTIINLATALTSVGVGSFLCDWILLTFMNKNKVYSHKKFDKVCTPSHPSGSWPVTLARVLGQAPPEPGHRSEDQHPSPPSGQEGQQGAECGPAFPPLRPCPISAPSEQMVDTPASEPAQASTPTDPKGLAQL
Outline: (§1)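 HEK (hP2X3) or tetracycline-inducible TRex293 (hP2X2/3) cells loaded with Calcium 4 dye, then given 11-point half-log compound dilutions for 15 min at room temperature in HBSS/HEPES, pH 7.4, with 1.8 mM CaCl2. Cells challenged with agonist at EC75; IC50 derived from fluorescence inhibition versus no-compound wells.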

Male Sprague Dawley rats = assay: In vivo thermal hyperalgesia (Hargreaves test), CFA-injected rat; details: at 1 hour, p<0.01
Protocol: Male Sprague Dawley rats of young adult age group and body weight range of 180-200 g were included in the study. Animals were housed under a 12 h light/dark cycle with food and water ad libitum. The animals underwent acclimatization with the observation chambers of the Hargreaves' apparatus for two days, twice daily for 45-60 min each time prior to initiation of study. Animals were also habituated to the apparatus for 15-30 min before each testing. Thermal hyperalgesia was assessed using the rat plantar test (Ugo Basile, Italy) following a modified method of Hargreaves (1988), “A new and sensitive method for measuring thermal nociception in cutaneous hyperalgesia”, Pain 32: 77-88, the entire disclosure of which is herein incorporated by reference. […]
Following basal readout of PWL values to the thermal stimulus (PWL measurements described previously), 50 μL of complete Freund's Adjuvant (CFA—1 mg/mL suspension—Sigma, USA, Cat #F5881) was injected subcutaneously into the plantar surface of the right hind (ipsilateral) paw of animals under light isoflurane anesthesia. […]
Next day (day 1) after 20-22 h of CFA injection, PWL of animals were recorded. Mean of three readings are taken as PWL recording of ipsilateral paw of each animal for pre and post CFA basal readout. […]

hP2X3 = biological target: T2, hP2X3 (Homo sapiens, UniProt P56373); assay: FLIPR intracellular calcium assay, hP2X3; format: cell-based; details: human P2X3-HEK cells, agonist at EC75
T2 construct: host or cells: HEK (hP2X3-HEK)
T2 sequence (P56373 1-397): T1 sequence (P56373 1-397)
Outline: as §1

IC50 (hP2X2/3) | IC50 (hP2X3) | SMILES | reversal to pre-treatment PWL value (Male Sprague Dawley rats; 60 mg/kg po) | reversal to pre-treatment PWL value (Male Sprague Dawley rats; 30 mg/kg po)
0.1 to 1 µM | 0.001 to 0.1 µM | CC[C@H](C)n1ncc2nc(N3CCN(C(C)=O)CC3)nc(N[C@H](C)c3cnc4ccccc4c3)c21 [Example 19] | 36% | 
0.001 to 0.1 µM | 0.001 to 0.1 µM | CCC(C)n1ncc2nc(N3CCN(C(N)=O)CC3)nc(N[C@@H](c3cnc4ccccc4c3)C3CC3)c21 (stereo partly drawn) [Example 10, 4-{1-sec-Butyl-7-[((R)-cyclopropyl-quinolin-3-yl-methyl)-amino]-1H-pyrazolo[4,3-d]pyrimidin-5-yl}-piperazine-1-carboxylic Acid Amide] |  | 32%
